Key:
[1] = tested on: Deroceras reticulatum (grey field slug); test: Example 1: pot test, treated winter wheat seed with 5 adult slugs per pot, 14 days; type: in vivo; details: for differences in the number of damaged seeds / protection / slug controlling effect (conclusion): Example 1, dosages tested; for protection / slug controlling effect (conclusion): winter wheat seed treatment
Procedure: (§1) Winter wheat (Kampa race; thousand grain weight of 51 grams) was used in an experiment to test the efficacy of the compositions of the present inventions in relation to known molluscicidal compounds. The seeds were disinfected for soil and germ moulds with 2 ml of Beret Gold (comprising 25 g/l of the fungicide fludioxonil) per kg of seed.
(§2) Sepiret® was added to all dry disinfections, and is the coating that was added to all agents of which the formulation was not suitable for coating.
The seeds were sown in earthenware pots with an internal diameter of 20 cm and a height of 18 cm, filled with 7 cm of potting soil (Trio BV, Weesp, The Netherlands) and with a top 2 cm of white quartz sand. A total of 40 seeds was placed in each pot, in a pattern of concentric circles on top of the quartz sand, the germ facing upwards. To each pot a total of 5 adult specimens of the test slug Deroceras reticulatum (grey field slug) were added. The pots were incubated at ±15° C. with a relative humidity of ±90% and light regime of ±12 hours light/12 hours dark, without artificial lighting. The pots were not irrigated overhead. In total, 4 parallel tests were performed for each test.
Following the addition of the slugs, the number of damaged seeds was counted after 2, 3, 7, 10 and 14 days. The number of plants present (germinated and not eaten or damaged by the slugs) was determined 3, 7, 10 and 14 days after the start of the test. […] The number of dead slugs was counted 2, 3, 7, 10 and 14 days after the start of the test (but not removed). Finally, on days 3, 7, 10 and 14 after the start of the test, the number fecal pellets was counted.
The data were statistically analysed by using F-tests (α=0.05) and pair-wise Student-tests.

[2] = tested on: Winter wheat (Kampa race) seeds; test: Seed germination test of treated winter wheat seeds (rolled in paper); type: in vivo; details: 3x50 seeds, 6 days at 22° C.
Procedure: as §1, §2
Table 2 provides an overview of the amounts of diluent water and Sepiret® used for treating the wheat seeds. Table 2 further provides the quality of the coating and the percentages of germinating seeds in a seed germination test. In this test, the percentage of germination of 3×50 seeds, rolled in paper, was determined after 6 days at 22° C. (continuously) and a 16 hours light regime.

[3] = 2 ml formulated per kg seed, 2 days after sowing
[4] = 2 ml formulated per kg seed, 3 days after sowing
[5] = 2 ml formulated per kg seed, 7 days after sowing
[6] = 2 ml formulated per kg seed, 10 days after sowing
[7] = 2 ml formulated per kg seed, 14 days after sowing
[8] = 4 ml formulated per kg seed, 2 days after sowing
[9] = 4 ml formulated per kg seed, 3 days after sowing
[10] = 4 ml formulated per kg seed, 7 days after sowing
[11] = 4 ml formulated per kg seed, 10 days after sowing
[12] = 4 ml formulated per kg seed, 14 days after sowing
[13] = 8 ml formulated per kg seed, 2 days after sowing
[14] = 8 ml formulated per kg seed, 3 days after sowing
[15] = 8 ml formulated per kg seed, 7 days after sowing
[16] = 8 ml formulated per kg seed, 10 days after sowing
[17] = 8 ml formulated per kg seed, 14 days after sowing
[18] = 23 ml formulated per kg seed, 2 days after sowing
[19] = 23 ml formulated per kg seed, 3 days after sowing
[20] = 23 ml formulated per kg seed, 7 days after sowing
[21] = 23 ml formulated per kg seed, 10 days after sowing
[22] = 23 ml formulated per kg seed, 14 days after sowing

SMILES: CN1COCN(Cc2cnc(Cl)s2)/C1=N\[N+](=O)[O-] [thiamethoxam]
- number of utilizable plants after 14 days ([1]; 2 ml formulated per kg seed): 0.3
- percentage of damaged seeds after 14 days ([1]; 2 ml formulated per kg seed): 97%
- Mean number of damaged seeds per pot [1, 3]: 5.0
- Mean number of dead slugs per pot [1, 3]: 0
- Mean number fecal pellets per pot [1, 4]: 42
- Mean number of damaged seeds per pot [1, 4]: 18.0
- Mean number of dead slugs per pot [1, 4]: 0
- Mean number of plants present per pot [1, 4]: 7.3
- Mean number fecal pellets per pot [1, 5]: 107
- Mean number of damaged seeds per pot [1, 5]: 37.3
- Mean number of dead slugs per pot [1, 5]: 0
- Mean number of plants present per pot [1, 5]: 0.3
- Mean number fecal pellets per pot [1, 6]: 158
- Mean number of damaged seeds per pot [1, 6]: 39.0
- Mean number of dead slugs per pot [1, 6]: 0
- Mean number of plants present per pot [1, 6]: 0.3
- Mean number fecal pellets per pot [1, 7]: 144
- Mean number of damaged seeds per pot [1, 7]: 38.8
- Mean number of dead slugs per pot [1, 7]: 0
- Mean number of plants present per pot [1, 7]: 0.3
- number of utilizable plants after 14 days ([1]; 4 ml formulated per kg seed): 0
- percentage of damaged seeds after 14 days ([1]; 4 ml formulated per kg seed): 98%
- Mean number of damaged seeds per pot [1, 8]: 1.8
- Mean number of dead slugs per pot [1, 8]: 0
- Mean number fecal pellets per pot [1, 9]: 30
- Mean number of damaged seeds per pot [1, 9]: 15.5
- Mean number of dead slugs per pot [1, 9]: 0
- Mean number of plants present per pot [1, 9]: 6.0
- Mean number fecal pellets per pot [1, 10]: 115
- Mean number of damaged seeds per pot [1, 10]: 37.0
- Mean number of dead slugs per pot [1, 10]: 0
- Mean number of plants present per pot [1, 10]: 0.3
- Mean number fecal pellets per pot [1, 11]: 126
- Mean number of damaged seeds per pot [1, 11]: 36.5
- Mean number of dead slugs per pot [1, 11]: 0.3
- Mean number of plants present per pot [1, 11]: 0
- Mean number fecal pellets per pot [1, 12]: 133
- Mean number of damaged seeds per pot [1, 12]: 39.0
- Mean number of dead slugs per pot [1, 12]: 0.5
- Mean number of plants present per pot [1, 12]: 0
- number of utilizable plants after 14 days ([1]; 8 ml formulated per kg seed): 3.8
- percentage of damaged seeds after 14 days ([1]; 8 ml formulated per kg seed): 84%
- Mean number of damaged seeds per pot [1, 13]: 2.0
- Mean number of dead slugs per pot [1, 13]: 0
- Mean number fecal pellets per pot [1, 14]: 33
- Mean number of damaged seeds per pot [1, 14]: 10.3
- Mean number of dead slugs per pot [1, 14]: 0
- Mean number of plants present per pot [1, 14]: 5.5
- Mean number fecal pellets per pot [1, 15]: 85
- Mean number of damaged seeds per pot [1, 15]: 29.8
- Mean number of dead slugs per pot [1, 15]: 0
- Mean number of plants present per pot [1, 15]: 5.3
- Mean number fecal pellets per pot [1, 16]: 108
- Mean number of damaged seeds per pot [1, 16]: 30.8
- Mean number of dead slugs per pot [1, 16]: 0
- Mean number of plants present per pot [1, 16]: 5.5
- Mean number fecal pellets per pot [1, 17]: 112
- Mean number of damaged seeds per pot [1, 17]: 33.8
- Mean number of dead slugs per pot [1, 17]: 0.3
- Mean number of plants present per pot [1, 17]: 5.5
- number of utilizable plants after 14 days ([1]; 23 ml formulated per kg seed): 2.5
- percentage of damaged seeds after 14 days ([1]; 23 ml formulated per kg seed): 79%
- Mean number of damaged seeds per pot [1, 18]: 0.5
- Mean number of dead slugs per pot [1, 18]: 0
- Mean number fecal pellets per pot [1, 19]: 20
- Mean number of damaged seeds per pot [1, 19]: 8.5
- Mean number of dead slugs per pot [1, 19]: 0.3
- Mean number of plants present per pot [1, 19]: 6.8
- Mean number fecal pellets per pot [1, 20]: 91
- Mean number of damaged seeds per pot [1, 20]: 29.8
- Mean number of dead slugs per pot [1, 20]: 0.3
- Mean number of plants present per pot [1, 20]: 6.3
- Mean number fecal pellets per pot [1, 21]: 122
- Mean number of damaged seeds per pot [1, 21]: 30.0
- Mean number of dead slugs per pot [1, 21]: 0.8
- Mean number of plants present per pot [1, 21]: 7.0
- Mean number fecal pellets per pot [1, 22]: 131
- Mean number of damaged seeds per pot [1, 22]: 31.5
- Mean number of dead slugs per pot [1, 22]: 0.8
- Mean number of plants present per pot [1, 22]: 5.8
- differences in the number of damaged seeds [1]: did not result in significant differences
- protection / slug controlling effect (conclusion) [1]: no sufficient protection to the plants
- Percentage germinated ([2]; 2 ml formulated per kg seed): 88%
- Percentage germinated ([2]; 4 ml formulated per kg seed): 78%
- Percentage germinated ([2]; 8 ml formulated per kg seed): 61%
- Percentage germinated ([2]; 23 ml formulated per kg seed): 73%

SMILES: COc1cc(C=CC(=O)O)cc(OC)c1 [dimethoxycinnamic acid, 3,5-dimethoxycinnamic acid]
- number of utilizable plants after 14 days ([1]; 2 ml formulated per kg seed): 0
- percentage of damaged seeds after 14 days ([1]; 2 ml formulated per kg seed): 99%
- Mean number of damaged seeds per pot [1, 3]: 5.0
- Mean number of dead slugs per pot [1, 3]: 0
- Mean number fecal pellets per pot [1, 4]: 66
- Mean number of damaged seeds per pot [1, 4]: 17.5
- Mean number of dead slugs per pot [1, 4]: 0
- Mean number of plants present per pot [1, 4]: 3.5
- Mean number fecal pellets per pot [1, 5]: 115
- Mean number of damaged seeds per pot [1, 5]: 39.5
- Mean number of dead slugs per pot [1, 5]: 0.3
- Mean number of plants present per pot [1, 5]: 0
- Mean number fecal pellets per pot [1, 6]: 133
- Mean number of damaged seeds per pot [1, 6]: 39.3
- Mean number of dead slugs per pot [1, 6]: 0.3
- Mean number of plants present per pot [1, 6]: 0
- Mean number fecal pellets per pot [1, 7]: 141
- Mean number of damaged seeds per pot [1, 7]: 39.8
- Mean number of dead slugs per pot [1, 7]: 0.8
- Mean number of plants present per pot [1, 7]: 0
- number of utilizable plants after 14 days ([1]; 4 ml formulated per kg seed): 1.5
- percentage of damaged seeds after 14 days ([1]; 4 ml formulated per kg seed): 87%
- Mean number of damaged seeds per pot [1, 8]: 4.3
- Mean number of dead slugs per pot [1, 8]: 0
- Mean number fecal pellets per pot [1, 9]: 46
- Mean number of damaged seeds per pot [1, 9]: 17.3
- Mean number of dead slugs per pot [1, 9]: 0.3
- Mean number of plants present per pot [1, 9]: 9.3
- Mean number fecal pellets per pot [1, 10]: 120
- Mean number of damaged seeds per pot [1, 10]: 31.8
- Mean number of dead slugs per pot [1, 10]: 0.3
- Mean number of plants present per pot [1, 10]: 1.8
- Mean number fecal pellets per pot [1, 11]: 138
- Mean number of damaged seeds per pot [1, 11]: 32.0
- Mean number of dead slugs per pot [1, 11]: 0.3
- Mean number of plants present per pot [1, 11]: 2.0
- Mean number fecal pellets per pot [1, 12]: 158
- Mean number of damaged seeds per pot [1, 12]: 34.8
- Mean number of dead slugs per pot [1, 12]: 1.0
- Mean number of plants present per pot [1, 12]: 2.0
- number of utilizable plants after 14 days ([1]; 8 ml formulated per kg seed): 1.0
- percentage of damaged seeds after 14 days ([1]; 8 ml formulated per kg seed): 84%
- Mean number of damaged seeds per pot [1, 13]: 1.8
- Mean number of dead slugs per pot [1, 13]: 0
- Mean number fecal pellets per pot [1, 14]: 60
- Mean number of damaged seeds per pot [1, 14]: 13.0
- Mean number of dead slugs per pot [1, 14]: 0
- Mean number of plants present per pot [1, 14]: 1.5
- Mean number fecal pellets per pot [1, 15]: 106
- Mean number of damaged seeds per pot [1, 15]: 30.3
- Mean number of dead slugs per pot [1, 15]: 0
- Mean number of plants present per pot [1, 15]: 1.0
- Mean number fecal pellets per pot [1, 16]: 150
- Mean number of damaged seeds per pot [1, 16]: 31.5
- Mean number of dead slugs per pot [1, 16]: 0
- Mean number of plants present per pot [1, 16]: 1.5
- Mean number fecal pellets per pot [1, 17]: 158
- Mean number of damaged seeds per pot [1, 17]: 33.8
- Mean number of dead slugs per pot [1, 17]: 0
- Mean number of plants present per pot [1, 17]: 1.5
- differences in the number of damaged seeds [1]: did not result in significant differences
- protection / slug controlling effect (conclusion) [1]: no slug controlling effect
- Percentage germinated ([2]; 2 ml formulated per kg seed): 75%
- Percentage germinated ([2]; 4 ml formulated per kg seed): 75%
- Percentage germinated ([2]; 8 ml formulated per kg seed): 38%

From patent US20070167492A1, “Molluscicidal agents” (priority 2003, published 2007)
